Experimental findings from paper PMC7525093, “Bis-Quinolinium Cyclophane Blockers of SK Potassium Channels Are Antagonists of M3 Muscarinic Acetylcholine Receptors” (Frontiers in Pharmacology, 2020) are described below.

Common to all, as to type: cell-based
The target of one assay is T1, M5 muscarinic receptor (Homo sapiens, UniProt P08912).
T1 construct: expressed in transfected cells; host or cells: CHO cells, transiently co-transfected with pCMV R-CEPIAer
T1 sequence (P08912 1-532): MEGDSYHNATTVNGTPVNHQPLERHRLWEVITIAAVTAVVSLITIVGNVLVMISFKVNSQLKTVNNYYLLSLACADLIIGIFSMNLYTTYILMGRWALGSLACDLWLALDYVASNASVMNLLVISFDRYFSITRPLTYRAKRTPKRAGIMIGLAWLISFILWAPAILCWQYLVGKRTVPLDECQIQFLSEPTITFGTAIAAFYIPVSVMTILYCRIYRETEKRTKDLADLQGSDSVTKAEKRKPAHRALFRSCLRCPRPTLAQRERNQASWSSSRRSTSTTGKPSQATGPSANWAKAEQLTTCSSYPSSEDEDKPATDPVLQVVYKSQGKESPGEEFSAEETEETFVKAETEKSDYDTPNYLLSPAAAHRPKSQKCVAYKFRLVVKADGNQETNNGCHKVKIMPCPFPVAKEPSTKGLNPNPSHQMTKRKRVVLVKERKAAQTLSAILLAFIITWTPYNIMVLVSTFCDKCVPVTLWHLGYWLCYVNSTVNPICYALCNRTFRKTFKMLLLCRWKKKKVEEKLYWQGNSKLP
Nature of the assay: R-CEPIAer ER calcium assay, CHO cells transiently transfected with M5 receptor. As to the method: [Worded in the source for another target; used here, by the source, with some conditions changed.] (§1) The binding of antagonists to Gq-coupled receptors was determined by measuring IP3-mediated calcium depletion from the endoplasmic reticulum (ER). This was accomplished using CHO-K1 cells stably transfected with human M3 muscarinic acetylcholine receptor (CEM3000000, cDNA Resource Center, Bloomsburg University) and R-CEPIAer, a low affinity ER-targeted calcium indicator fluorescent protein ([Suzuki et al., 2014]). R-CEPIAer reporting of ER calcium concentration was assessed using 564 nm excitation light (>590 long-pass emission) at 20 second intervals on a Nikon swept-field confocal microscope using slit-scan mode, 2x2 Binning, and 100 millisecond frames. F/Fmax was fluorescence intensity normalized to maximal fluorescence intensity during the experiment. The response of cells to Gq-coupled receptor agonist were measured as the change in F/Fmax (ΔF/Fmax) from preagonist value to fluorescence minimum during agonist application (that occurs by IP3-mediated ER calcium depletion). […] Perfusion of each agonist application was for 2 min, while the antagonist overlapped and preceded the second agonist application by 3 min. […] IC50 was calculated by assaying fractional inhibition using a dose-response of antagonist concentrations (i.e. Figure 1D ). […]

Assay [1] concerns the target T2, human P2Y1 purinergic receptor (Homo sapiens, UniProt P47900).
T2 construct: expressed in transfected cells; host or cells: CHO cells, transiently co-transfected with pCMV R-CEPIAer
Nature of the assay: R-CEPIAer ER calcium assay, CHO cells co-transfected with P2Y1 receptor. Particulars: 5 μM UCL 1684, 1 μM ATP, read-out: Fractional inhibition of second ATP response. As to the method: [Worded in the source for another target; used here, by the source, with some conditions changed.] as §1

Assay [2] addresses T3, human M3 muscarinic acetylcholine receptor (Homo sapiens, UniProt P20309).
T3 construct: host or cells: CHO-K1 cells, stably transfected
Nature of the assay: R-CEPIAer ER calcium assay of Gq-coupled receptor activation, M3-transfected CHO-K1 cells. As to the method: The binding of antagonists to Gq-coupled receptors was determined by measuring IP3-mediated calcium depletion from the endoplasmic reticulum (ER). This was accomplished using CHO-K1 cells stably transfected with human M3 muscarinic acetylcholine receptor (CEM3000000, cDNA Resource Center, Bloomsburg University) and R-CEPIAer, a low affinity ER-targeted calcium indicator fluorescent protein ([Suzuki et al., 2014]). R-CEPIAer reporting of ER calcium concentration was assessed using 564 nm excitation light (>590 long-pass emission) at 20 second intervals on a Nikon swept-field confocal microscope using slit-scan mode, 2x2 Binning, and 100 millisecond frames. F/Fmax was fluorescence intensity normalized to maximal fluorescence intensity during the experiment. The response of cells to Gq-coupled receptor agonist were measured as the change in F/Fmax (ΔF/Fmax) from preagonist value to fluorescence minimum during agonist application (that occurs by IP3-mediated ER calcium depletion). […] Perfusion of each agonist application was for 2 min, while the antagonist overlapped and preceded the second agonist application by 3 min. […] IC50 was calculated by assaying fractional inhibition using a dose-response of antagonist concentrations (i.e. Figure 1D ). For assays of other receptors such as the M1 and M5 muscarinic receptors, H1 histamine and P2Y1 purinergic receptors, these receptors were transiently co-transfected with the pCMV R-CEPIAer plasmid (a gift from Masamitsu Iino (Addgene plasmid # 58216; http://n2t.net/addgene:58216; RRID : Addgene_58216)) into CHO cells using polyethylenimine [according to previous methods ([Longo et al., 2013])]. IC50 and EC50 values were estimated by fitting the dose-response relationship to a Hill equation.
To obtain a pKB using a Schild analysis ([Arunlakshana and Schild, 1959]), the acetylcholine EC50 was measured in the absence of UCL1684 and EC50′ measured in the presence of increasing concentrations of UCL1684. These values were used to calculate a dose ratio (DR = EC50′/EC50) for each UCL1684 concentration. The log(DR − 1) was plotted vs. log UCL1684 concentrations and fit to a linear equation where the theoretical X-intercept was used to estimate a pKB.

T3 sequence (P20309 whole entry): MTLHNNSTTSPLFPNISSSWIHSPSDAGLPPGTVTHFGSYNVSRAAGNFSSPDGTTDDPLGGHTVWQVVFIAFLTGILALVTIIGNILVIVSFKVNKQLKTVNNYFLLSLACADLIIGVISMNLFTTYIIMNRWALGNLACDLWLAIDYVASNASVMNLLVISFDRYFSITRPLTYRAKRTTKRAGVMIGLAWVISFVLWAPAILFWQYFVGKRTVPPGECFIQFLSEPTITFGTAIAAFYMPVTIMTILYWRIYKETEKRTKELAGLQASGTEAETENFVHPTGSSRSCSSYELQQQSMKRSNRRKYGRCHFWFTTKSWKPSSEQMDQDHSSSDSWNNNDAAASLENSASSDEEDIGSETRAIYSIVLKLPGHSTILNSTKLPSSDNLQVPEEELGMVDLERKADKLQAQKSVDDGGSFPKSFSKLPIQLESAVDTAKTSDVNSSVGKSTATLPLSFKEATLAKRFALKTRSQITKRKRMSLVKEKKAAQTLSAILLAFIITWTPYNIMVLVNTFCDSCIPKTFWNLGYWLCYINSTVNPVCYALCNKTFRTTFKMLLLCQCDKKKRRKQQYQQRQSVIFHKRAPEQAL
T2 sequence (P47900 whole entry): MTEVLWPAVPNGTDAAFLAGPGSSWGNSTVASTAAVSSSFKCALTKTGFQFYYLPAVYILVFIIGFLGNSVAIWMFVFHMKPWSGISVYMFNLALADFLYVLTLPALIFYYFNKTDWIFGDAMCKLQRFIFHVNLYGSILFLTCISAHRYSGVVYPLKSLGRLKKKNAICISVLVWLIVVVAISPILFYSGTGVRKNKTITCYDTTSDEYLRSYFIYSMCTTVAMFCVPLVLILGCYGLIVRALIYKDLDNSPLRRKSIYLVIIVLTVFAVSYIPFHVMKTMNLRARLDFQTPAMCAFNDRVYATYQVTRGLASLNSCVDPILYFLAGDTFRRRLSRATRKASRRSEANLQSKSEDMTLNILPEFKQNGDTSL

One may read the IC50 as the concentration needed to halve the response being measured. What is called inhibition is the percentage by which the read-out fell short of the control. Turning to `c1cc2cc(c1)C[n+]1ccc(c3ccccc31)NCc1ccc(cc1)CNc1cc[n+](c3ccccc13)C2` [UCL 1684, 6,12,19,20,25,26-Hexahydro-5,27:13,18:21,24-trietheno-11,7-metheno-7H-dibenzo [b,n] [1,5,12,16]tetraazacyclotricosine-5,13-diium dibromide], on M5 muscarinic receptor, the IC50 turned out to be 520 nM. Besides, on M5 muscarinic receptor (0.5 μM carbachol), the “Hill slope of inhibition curve, M5 receptor” value came to 1.4 ± 0.17. In assay [1], the inhibition at 5 µM was found to be 6.7 ± 6%. Further, in assay [2], the IC50 is 1500 nM and the “Nature of antagonism at M3 receptors” value is on record as “competitive antagonist”. Further, the “Hill slope of inhibition curve, M3 receptor” value in assay [2] (0.5 μM carbachol, Hill equation fit) is on record as 1.8 ± 0.29. In addition, in assay [2] (5 μM antagonist, 0.5 μM carbachol, 0 = none, 1 = complete inhibition), the “Fractional inhibition of second carbachol response” value stood at 0.99. The Schild plot slope in assay [2] (linear regression of log(DR-1) vs log UCL1684) came to 0.94. In addition, in assay [2] (read-out: Ki / KB from Schild analysis), the Kb worked out at 155 nM.
